Experimental data published in the supplement of paper PMC10307832.

Legend:
Assay in all cases: relative viability (nuclei count vs DMSO), 5 days (fraction); higher = more cells survive
[1] = system: 201T
Outline: (§1)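 Nuclei were stained with Hoechst during a one-step fixation (final 0.05% Triton X-100, 1% formaldehyde, 1 ug/ml Hoechst) carried out 5 days after dosing, then counted on 4× images. The cells, lung cancer lines in 1536-well plates, had been dosed by pin tool the day after seeding with one drug alone or a fixed anchor-drug dose plus five library-drug doses (not always all listed) in √10 steps. Relative viability is the nuclei count in treated wells divided by that in vehicle wells, and each value is the median of duplicate plates.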

[2] = system: CAL-12T
Outline: as §1

[3] = system: COR-L23
Outline: as §1

[4] = system: HOP-62
Outline: as §1

[5] = system: LC-2-ad
Outline: as §1

[6] = system: NCI-H1355
Outline: as §1

[7] = system: NCI-H1395
Outline: as §1

[8] = system: NCI-H1651
Outline: as §1

[9] = system: NCI-H1666
Outline: as §1

[10] = system: NCI-H1734
Outline: as §1

[11] = system: NCI-H1944
Outline: as §1

[12] = system: NCI-H1993
Outline: as §1

[13] = system: NCI-H2085
Outline: as §1

[14] = system: NCI-H2170
Outline: as §1

[15] = system: NCI-H2228
Outline: as §1

[16] = system: NCI-H322M
Outline: as §1

[17] = system: NCI-H520
Outline: as §1

[18] = system: NCI-H661
Outline: as §1

[19] = system: NCI-H838
Outline: as §1

[20] = system: RERF-LC-KJ
Outline: as §1

## COCC1(CO)C(=O)C2CCN1CC2 (stereo not given) [PRIMA-1MET] + CS(=O)(=O)CCNCc1ccc(-c2ccc3ncnc(Nc4ccc(OCc5cccc(F)c5)c(Cl)c4)c3c2)o1 [Lapatinib] (partner 2 µM)
[1]; first compound 0.2 µM
  relative viability: 1.15
[1]; first compound 0.6325 µM
  relative viability: 0.695
[1]; first compound 2 µM
  relative viability: 0.834
[1]; first compound 6.325 µM
  relative viability: 1.07
[1]; first compound 20 µM
  relative viability: 1.01
[2]; first compound 0.2 µM
  relative viability: 0.704
[2]; first compound 0.6325 µM
  relative viability: 0.736
[2]; first compound 2 µM
  relative viability: 0.571
[2]; first compound 6.325 µM
  relative viability: 0.677
[2]; first compound 20 µM
  relative viability: 0.388
[3]; first compound 0.2 µM
  relative viability: 1.11
[3]; first compound 0.6325 µM
  relative viability: 0.922
[3]; first compound 2 µM
  relative viability: 0.941
[3]; first compound 6.325 µM
  relative viability: 1.17
[3]; first compound 20 µM
  relative viability: 0.0199
[4]; first compound 0.2 µM
  relative viability: 1.17
[4]; first compound 0.6325 µM
  relative viability: 0.911
[4]; first compound 2 µM
  relative viability: 0.887
[4]; first compound 6.325 µM
  relative viability: 1.06
[4]; first compound 20 µM
  relative viability: 0.853
[5]; first compound 0.2 µM
  relative viability: 1.15
[5]; first compound 0.6325 µM
  relative viability: 0.831
[5]; first compound 2 µM
  relative viability: 0.769
[5]; first compound 6.325 µM
  relative viability: 0.936
[5]; first compound 20 µM
  relative viability: 0.963
[6]; first compound 0.2 µM
  relative viability: 1.12
[6]; first compound 0.6325 µM
  relative viability: 0.933
[6]; first compound 2 µM
  relative viability: 0.893
[6]; first compound 6.325 µM
  relative viability: 1
[6]; first compound 20 µM
  relative viability: 0.998
[7]; first compound 0.2 µM
  relative viability: 0.922
[7]; first compound 0.6325 µM
  relative viability: 0.701
[7]; first compound 2 µM
  relative viability: 1.09
[7]; first compound 6.325 µM
  relative viability: 0.89
[7]; first compound 20 µM
  relative viability: 0.908
[8]; first compound 0.2 µM
  relative viability: 0.917
[8]; first compound 0.6325 µM
  relative viability: 0.731
[8]; first compound 2 µM
  relative viability: 0.659
[8]; first compound 6.325 µM
  relative viability: 0.839
[8]; first compound 20 µM
  relative viability: 0.736
[9]; first compound 0.2 µM
  relative viability: 0.765
[9]; first compound 0.6325 µM
  relative viability: 0.584
[9]; first compound 2 µM
  relative viability: 0.596
[9]; first compound 6.325 µM
  relative viability: 0.688
[9]; first compound 20 µM
  relative viability: 0.275
[10]; first compound 0.2 µM
  relative viability: 1.43
[10]; first compound 0.6325 µM
  relative viability: 0.98
[10]; first compound 2 µM
  relative viability: 0.857
[10]; first compound 6.325 µM
  relative viability: 1.07
[10]; first compound 20 µM
  relative viability: 0.591
[11]; first compound 0.2 µM
  relative viability: 0.971
[11]; first compound 0.6325 µM
  relative viability: 0.6
[11]; first compound 6.325 µM
  relative viability: 0.836
[11]; first compound 20 µM
  relative viability: 0.823
[12]; first compound 0.2 µM
  relative viability: 0.776
[12]; first compound 0.6325 µM
  relative viability: 0.776
[12]; first compound 2 µM
  relative viability: 0.731
[12]; first compound 6.325 µM
  relative viability: 0.771
[12]; first compound 20 µM
  relative viability: 0.759
[13]; first compound 0.2 µM
  relative viability: 0.814
[13]; first compound 0.6325 µM
  relative viability: 0.591
[13]; first compound 2 µM
  relative viability: 0.523
[13]; first compound 6.325 µM
  relative viability: 0.54
[13]; first compound 20 µM
  relative viability: 0.493
[14]; first compound 0.2 µM
  relative viability: 0.263
[14]; first compound 0.6325 µM
  relative viability: 0.236
[14]; first compound 2 µM
  relative viability: 0.237
[14]; first compound 6.325 µM
  relative viability: 0.276
[14]; first compound 20 µM
  relative viability: 0.273
[15]; first compound 0.2 µM
  relative viability: 1.12
[15]; first compound 0.6325 µM
  relative viability: 0.834
[15]; first compound 2 µM
  relative viability: 1.59
[15]; first compound 6.325 µM
  relative viability: 1.23
[15]; first compound 20 µM
  relative viability: 0.0337
[16]; first compound 0.2 µM
  relative viability: 0.634
[16]; first compound 6.325 µM
  relative viability: 0.629
[16]; first compound 20 µM
  relative viability: 0.61
[17]; first compound 0.2 µM
  relative viability: 0.792
[17]; first compound 0.6325 µM
  relative viability: 0.987
[17]; first compound 6.325 µM
  relative viability: 0.828
[17]; first compound 20 µM
  relative viability: 0.0834
[18]; first compound 0.2 µM
  relative viability: 0.531
[18]; first compound 0.6325 µM
  relative viability: 0.467
[18]; first compound 6.325 µM
  relative viability: 0.493
[18]; first compound 20 µM
  relative viability: 0.266
[19]; first compound 0.2 µM
  relative viability: 1.23
[19]; first compound 0.6325 µM
  relative viability: 0.913
[19]; first compound 2 µM
  relative viability: 0.801
[19]; first compound 6.325 µM
  relative viability: 1.06
[19]; first compound 20 µM
  relative viability: 0.197
[20]; first compound 0.2 µM
  relative viability: 1.01
[20]; first compound 0.6325 µM
  relative viability: 0.86
[20]; first compound 2 µM
  relative viability: 0.874
[20]; first compound 6.325 µM
  relative viability: 0.928
[20]; first compound 20 µM
  relative viability: 0.883
